Measured values as given in patent publication US20170368069A1, “USE OF 4-(4-FLUORO-2-METHOXYPHENYL)-N--1,3,5-TRIAZIN-2-AMINE FOR TREATING LEUKEMIAS” (Bayer Pharma Aktiengesellschaft, priority 2015, published 2017).
pIC50: −log10 of the molar value. “And” between values parts separate entries of the source, which are not always exact repeats. Equal entries are not always repeated. “Also recorded” adds a separate entry of the source.

Key:
[1] = tested on: HL-60; assay: Proliferation assay, HL-60; assay type: cell-based; settings: Homo sapiens; HL-60, acute leukemia; after 72 hours of incubation with the substance
[2] = tested on: MOLM-13; assay: Proliferation assay, MOLM-13; assay type: cell-based; settings: Homo sapiens; MOLM-13, acute myeloid leukemia, 11q23 positive; after 72 hours of incubation
[3] = tested on: MV4-11; assay: Proliferation assay, MV4-11; assay type: cell-based; settings: Homo sapiens; MV4-11, acute myeloid leukemia, 11q23 positive; after 72 hours of incubation
[4] = tested on: NOMO-1; assay: Proliferation assay, NOMO-1; assay type: cell-based; settings: Homo sapiens; NOMO-1, acute myeloid leukemia, 11q23 positive; after 72 hours of incubation
[5] = tested on: KG-1; assay: Proliferation assay, KG-1; assay type: cell-based; settings: Homo sapiens; KG-1, acute myeloid leukemia; after 72 hours of incubation
[6] = tested on: PL-21; assay: Proliferation assay, PL-21; assay type: cell-based; settings: PL-21, acute myeloid leukemia; after 72 hours of incubation
[7] = tested on: OCI-AML-2; assay: Proliferation assay, OCI-AML-2; assay type: cell-based; settings: Homo sapiens, OCI-AML2; OCI-AML-2, acute myeloid leukemia; after 72 hours of incubation
[8] = tested on: HL-60; assay: Subcutaneous HL-60 leukemia xenograft, efficacy and tolerability; assay type: in vivo, NOD/SCID mice; settings: 25 mg/kg/day p.o.
Protocol: (§1) The aim of the present experiments was to assess the in vivo efficacy and tolerability of Compound A′ in monotherapy in four leukemia models subcutaneously implanted in NOD/SCID mice.
(§2) The experiments included four in vivo efficacy experiments with female NOD/SCID mice bearing subcutaneous leukemia xenografts. Compound A′ was assessed at one dose level in monotherapy. Anti-tumor activity and tolerability of all groups were assessed using the vehicle control group as a reference.
(§3) Mouse strain, sex: NOD/SCID, female Animals supplied by: Harlan Total number of mice Efficacy test (implanted/randomized): 100/74 Approximate age at implantation: 5-7 weeks Approximate age at randomization: 6-9 weeks
(§4) The tumor models used in this study were derived from commercially available cell lines.
Leukemia cells were subcutaneously injected as cell suspensions into one flank of immunodeficient NOD/SCID mice under isofluorane anaesthesia (5*10^6 cells per injection). In the case of THP-1 cells, matrigel was used to increase implantation efficacy. […]
(§5) At randomization, the volume of growing tumors was initially determined. […]
(§6) Mice were weighed twice a week. Relative body weights of individual mice in % were calculated by dividing the individual body weight on day X (BWX) by the individual body weight on day 0 (BW0) multiplied by 100 according to the formula: […]
(§7) Group median relative body weights were calculated as well, considering only the weights of mice that were alive on the day in question.
(§8) The tumor volumes were determined by two-dimensional measurement with a caliper on the day of randomization (day 0) and then twice weekly (i.e. on the same days on which mice were weighed). Tumor volumes were calculated according to the formulas: […]
(§9) Anti-tumor activity was evaluated as maximum tumor volume inhibition versus the vehicle control group. […]
Tumor inhibition for a particular day (T/C in %) was calculated from the ratio of the median RTV values of test versus control groups multiplied by 100. […]

[9] = tested on: MV4-11; assay: Subcutaneous MV4-11 leukemia xenograft, efficacy and tolerability; assay type: in vivo, NOD/SCID mice
Protocol: as §1, §2, §3, §4
(§10) Leukemia cells were subcutaneously injected as cell suspensions into one flank of immunodeficient NOD/SCID mice under isofluorane anaesthesia (5*10^6 cells per injection). In the case of THP-1 cells, matrigel was used to increase implantation efficacy. For this, 1×10^8 leukemia cells were mixed with matrigel and an appropriate volume of the solution containing 5*10^6 cells was injected as described above.
At randomization, the volume of growing tumors was initially determined. […] The result of the randomization was documented and maintained with the experimental data. Animals not randomized were euthanized. The day of randomization is designated as day 0 of an experiment. […]
as §6, §7, §8, §9
(§11) Tumor inhibition for a particular day (T/C in %) was calculated from the ratio of the median RTV values of test versus control groups multiplied by 100.
The minimum (or optimum) T/C % value recorded for a particular test group during an experiment represents the maximum anti-tumor activity for the respective treatment. T/C values were calculated if at least 50% of the randomized animals in a group were alive on the day in question. […]

[10] = tested on: NOMO-1; assay: Subcutaneous NOMO-1 leukemia xenograft, efficacy and tolerability; assay type: in vivo, NOD/SCID mice
Protocol: as §1, §2, §3, §4, §10
(§12) At randomization, the volume of growing tumors was initially determined. […] The result of the randomization was documented and maintained with the experimental data. Animals not randomized were euthanized. The day of randomization is designated as day 0 of an experiment.
(§13) Vehicle: 80% (m/V) PEG400 in water for injection Compound A′: preparation of a dosing solution (2.5 mg/ml) once weekly by diluting the Compound A′ powder at 0.25% (w/v) in vehicle; storage of the dosing solution at 4° C.; dosing volume 10 ml/kg
as §6, §7, §8
(§14) Anti-tumor activity was evaluated as maximum tumor volume inhibition versus the vehicle control group. Data evaluation was performed using Oncotest proprietary software.
as §11
(§15) The minimum (or optimum) T/C % value recorded for a particular test group during an experiment represents the maximum anti-tumor activity for the respective treatment. T/C values were calculated if at least 50% of the randomized animals in a group were alive on the day in question.
(§16) Group optimum T/C values (in %) were used for activity rating as follows:
(§17) All leukemia models were implanted by subcutaneous injection of the corresponding cell line into female NOD/SCID mice. Compound A′ was administered orally at one dose level (25 mg/kg/day) in monotherapy once daily and treatment started once subcutaneous tumors were established. A vehicle-treated control group was included in each experiment. […] Anti-tumor activity (tumor growth inhibition) and tolerability of all groups were assessed using the vehicle control group as a reference.

[11] = tested on: THP-1; assay: Subcutaneous THP-1 leukemia xenograft, efficacy and tolerability; assay type: in vivo, NOD/SCID mice
Protocol: as §1, §2, §3, §4, §10, §12, §13, §6, §7, §8, §14, §11, §15, §16, §17

[12] = tested on: leukemia xenograft models MV4-11, NOMO-1, THP-1 and HL-60; assay: Leukemia xenograft models, statements pooled over several models; assay type: in vivo; settings: leukemia xenografts bearing mice, 25 mg/kg/day p.o.
Protocol: as §1, §2
Mouse strain, sex: NOD/SCID, female Animals supplied by: Harlan Total number of mice Efficacy test (implanted/randomized): 100/74 Approximate age at implantation: 5-7 weeks Approximate age at randomization: 6-9 weeks […]
as §5, §6, §7, §8

## COc1cc(F)ccc1-c1ncnc(Nc2cccc(CS(C)(=N)=O)c2)n1 (single isomer, unassigned; (+)) [Compound A′, (+)-4-(4-Fluoro-2-methoxyphenyl)-N-{3-[(S-methylsulfonimidoyl)methyl]phenyl}-1,3,5-triazin-2-amine]
[1]
  pIC50: 5.95
[2]
  pIC50: 6.49
[3]
  pIC50: 6.41
[4]
  pIC50: 6.48
[5]
  pIC50: 6.17
[6]
  pIC50: 6.72
[7]
  pIC50: 6.49
[8]; HL-60 xenograft (no 11q23 translocation), schedule days 0-6, 11-17, minimum on day 14, 25 mg/kg/day
  Min. T/C: 63.9% and 63.9 (14) %
[8]; HL-60 xenograft
  anti-tumor activity (in words): borderline anti-tumor activity
[8]; HL-60 xenograft, days 0-6, 11-17, rating from group optimum T/C
  Activity Rating: +/− (Borderline activity 50% ≦ T/C < 65%)
[9]; MV4-11 xenograft (11q23 translocation), 25 mg/kg/day p.o., days 0-25, minimum on day 14
  Min. T/C: 11.9 (14) %
[9]; MV4-11 xenograft, 25 mg/kg/day p.o.
  anti-tumor activity (in words): High anti-tumor activity
[9]; MV4-11 xenograft, 25 mg/kg/day p.o., days 0-25, rating from group optimum T/C
  Activity Rating: ++ (High activity 10% ≦ T/C < 25%)
[9]; MV4-11 xenograft, Mann-Whitney-Wilcoxon U-test
  Tumor growth versus vehicle control group: significantly reduced; also recorded: significantly attenuated
[10]; NOMO-1 xenograft (11q23 translocation), 25 mg/kg/day p.o., days 0-25, minimum on day 14
  Min. T/C: 19.7 (14) %
[10]; NOMO-1 xenograft, 25 mg/kg/day p.o.
  anti-tumor activity (in words): High anti-tumor activity
[10]; NOMO-1 xenograft, 25 mg/kg/day p.o., days 0-25, rating from group optimum T/C
  Activity Rating: ++ (High activity 10% ≦ T/C < 25%)
[10]; NOMO-1 xenograft-bearing mice, 25 mg/kg/day p.o.
  group median BWL (body weight loss): up to 0.4%
[10]; NOMO-1 xenograft, Mann-Whitney-Wilcoxon U-test
  Tumor growth versus vehicle control group: significantly reduced; also recorded: significantly attenuated
[11]; THP-1 xenograft (11q23 translocation), 25 mg/kg/day p.o., days 0-25, minimum on day 14
  Min. T/C: 21.0 (14) %
[11]; THP-1 xenograft, 25 mg/kg/day p.o.
  anti-tumor activity (in words): High anti-tumor activity
[11]; THP-1 xenograft, 25 mg/kg/day p.o., days 0-25, rating from group optimum T/C
  Activity Rating: + (Moderate activity 25% ≦ T/C < 50%)
[11]; THP-1 xenograft-bearing mice, 25 mg/kg/day p.o.
  group median BWL (body weight loss): up to 0.4%
[11]; THP-1 xenograft, Mann-Whitney-Wilcoxon U-test
  Tumor growth versus vehicle control group: significantly reduced; also recorded: significantly attenuated
[12]
  tolerability: acceptable tolerability profile
